Source: PMC8126654, “Novel Pan-Pim Kinase Inhibitors With Imidazopyridazine and Thiazolidinedione Structure Exert Potent Antitumor Activities” (Frontiers in Pharmacology, 2021)

Legend:
Pim-1 = biological target: T1, Pim-1 (Homo sapiens, UniProt P11309); test: Binding detection based on SPR platform (BIACORE T200); conditions: 6.5, 13, 25, or 50 µM
T1 construct: purchased Life Technologies; Thermo Fisher Scientific Inc
Description: The interactions between test compounds and Pim-1 were detected by surface plasmon resonance platform BIACORE T200 (GE Healthcare Life Sciences, Buckinghamshire, England). Pim-1 was diluted to 20 μg/ml in 10 mM acetate buffer (pH 5.0), and then immobilized as a ligand in the N-hydroxysuccinimide/ethyl 3-(3-dimethylaminopropyl) carbodiimide-pre-activated CM5 sensor chip, following blocking by ethanolamine. Test compounds were diluted at 6.5, 13, 25, or 50 µM in a vehicle of 5% DMSO (v/v) in phosphate buffered saline (PBS). The dilutions were injected as analyte flow liquid phase with PBS containing 5% DMSO (v/v) as running buffer at a constant flow rate of 30 μL/min. A 2-min association time was set. The data were collected by Biacore Control Software. Kinetics and affinity parameters were evaluated with the Langmuir model (1:1) using BIA evaluation software.

Pim-1, 2, and 3 = test: Kinetic assay (Lineweaver-Burk analysis); assay type: biochemical
Description: Enzyme kinetic experiments were performed at pH 7.5 in 50 mM HEPES buffer with 1 mM EGTA, 10 mM MgCl2, and 0.01% Brij-35. […] Plates were immediately placed into a Caliper LabChip EZ Reader II (PerkinElmer Inc.) and wells were sampled periodically throughout an 1-hour reaction period for initial reaction rate. The fluorescent product and substrate were separated and monitored on a Caliper microfluidic instrument. The conversion of substrate was calculated with Caliper software. Ki values were determined from the double reciprocal Lineweaver-Burk plot.

cancer cell lines = test: Cytotoxicity assay for cell survival (cancer cell proliferation); assay type: cell-based; conditions: 96 hours; read-out: IC50 for proliferation of a broad spectrum of cancer cell lines (range)
From the text: We obtained colon cancer HCT116 and HT-29 cells, prostate cancer PC-3, DU145, and LNCaP cells, lung cancer NCI-H460 and NCI-H522 cells, breast cancer MDA-MB-231 cells, AML MV-4-11 cells, and chronic myeloid leukemia (CML) K-562, MEG-01, and KU812 cells from American Type Culture Collection (Manassas, VA, United States); stomach cancer MKN45 cells from the Health Science Research Resources Bank (Osaka, Japan); pancreatic cancer AsPC-1 and MIA PaCa-2, and lung cancer A549 cells from DS Pharma Biomedical (Osaka, Japan). All cell lines were cultured in RPMI1640 medium (Life Technologies; Thermo Fisher Scientific Inc.) with 10% (v/v) fetal bovine serum (FBS; Sigma-Aldrich; Merck KgaA) at 37°C in 5% CO2.
Cells were seeded in 96-well plates and test compounds were added to the cultures at several concentrations.

PC-3 = test: Immunoblot analysis of phosphorylation of Pim kinase substrates, PC-3; assay type: cell-based; conditions: PC-3, 4 h
Description: (§1) Cells were plated overnight and then treated with test compounds for 4 hours. Then, the cells were lyzed in solubilization buffer [10 mM Tris-HCl (pH7.4), 0.1% (w/v) NP-40, 0.1% (w/v) sodium deoxycholate, 0.1% (w/v) SDS, 0.15 M NaCl, 1 mM EDTA, 10 µM aprotinin] with phosphatase inhibitor cocktails (Nakarai Tesque, Kyoto, Japan), and subjected to SDS-PAGE using 15% (w/v) gels under reducing conditions. The separated proteins were electrotransferred to Immobilon transfer membranes (Merck Millipore, Darmstadt, Germany). Then, each membrane was reacted with primary antibodies, which were subsequently complexed with appropriate horseradish peroxidase-conjugated secondary antibodies. Signals were detected using the ECL Western Blotting Detection System (GE Healthcare Life Sciences) and protein expression was quantified with a LAS-3000 Luminescent Image Analyzer (GE Healthcare Life Sciences). The protein bands were quantified using ImageQuant TL software (GE Healthcare Life Sciences).

MKN45 = test: Immunoblot analysis of phosphorylation of Pim kinase substrates, MKN45; assay type: cell-based; conditions: MKN45, 4 h
Description: as §1

MV-4-11 = test: Cell cycle analysis, MV-4-11; assay type: cell-based; conditions: 24 h (DMSO 52%)
From the text: After treatment, cells were fixed and stained with propidium iodide using the Cell Cycle Phase Determination kit (Cayman Chemical, Ann Arbor, MI, United States) and analyzed by Guava EasyCyteTM Plus System (Merck Millipore).

T1 sequence (P11309 whole entry): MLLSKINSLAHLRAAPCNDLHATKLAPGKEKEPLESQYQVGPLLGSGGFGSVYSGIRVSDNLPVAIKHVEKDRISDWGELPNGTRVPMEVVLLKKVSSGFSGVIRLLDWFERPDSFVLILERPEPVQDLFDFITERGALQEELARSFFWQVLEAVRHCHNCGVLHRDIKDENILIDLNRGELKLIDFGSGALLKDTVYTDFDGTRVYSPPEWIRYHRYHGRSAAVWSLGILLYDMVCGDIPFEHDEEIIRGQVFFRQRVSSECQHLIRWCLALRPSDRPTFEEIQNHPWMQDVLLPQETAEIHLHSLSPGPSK

CN1CCN(c2ccc(-c3cnc4ccc(/C=C5\SC(=O)NC5=O)nn34)cc2)CC1 [YPC-21440, (Z)-5-([3-{4-(4-methylpiperazin-1-yl)phenyl}imidazo[1,2-b]pyridazin-6-yl]methylene)thiazolidine-2,4-dione]
Binding to Pim-1 by SPR (Biacore) (Pim-1): bound Pim-1 in a concentration-dependent manner | Mode of inhibition of Pim kinases (Lineweaver-Burk) (Pim-1, 2, and 3): ATP competitive manner | IC50 (cancer cell lines): 27 to 1000 nM | Phosphorylation levels of Bad, 4EBP, and p21 (PC-3): decreased | Phosphorylation levels of Bad, 4EBP, and p21 (MKN45): decreased | Percentage of cells in G1 phase (MV-4-11; MV-4-11, 0.3 µM): 55% | Percentage of cells in G1 phase (MV-4-11; MV-4-11, 1 µM): 77%
